Laboratory results taken from patent publication US20080311126A1, “Antisense Oligonucleotides Directed to Ribonucleotide Reducatase R2 and Uses Thereof in Combination Therapies for the Treatment of Cancer” (Genesense Technologies, Inc, priority 2004, published 2008).
Oligonucleotides are written 5' to 3', each unit as a sugar letter and its base; * is a phosphorothioate linkage, no mark a phosphodiester; rarer units and linkages stand in square brackets, end groups in braces. Plain capitals give the bases only. d = 2'-deoxy (DNA)

How the values were obtained:
Assay type in all cases: cell-based, human
[1] = system: HepG2 hepatocellular carcinoma; assay: Relative colony forming efficiency (Example 17, Table 13); conditions: averages of 2-8 determinations
In short: (§1)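 Antisense phosphorothioates are tested at 0.2 μM unless stated, transfected with DOTMA/DOPE (2.5 μg) for four hours. Colony counts after methylene blue staining give percent inhibition versus vehicle-lipid controls.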

[2] = system: T24 bladder cell carcinoma; assay: as above; conditions: averages of 2-8 determinations
In short: as §1

[3] = system: PC-3 prostrate cell adenocarcinoma; assay: as above; conditions: averages of 2-8 determinations
In short: as §1

A549 lung cell carcinoma = assay: as above; conditions: averages of 2-8 determinations
In short: as §1

[4] = system: T-47D breast ductal carcinoma; assay: as above; conditions: averages of 2-8 determinations
In short: as §1

[5] = system: HCT116 colon cell carcinoma; assay: as above; conditions: averages of 2-8 determinations
In short: as §1

[6] = system: H596 lung adenosquamous carcinoma cells; assay: as above; conditions: averages of 2-8 determinations
In short: as §1

Hela S3 cells = assay: Relative colony forming efficiency, lipofectin +/- oligonucleotide 4 hours; conditions: Hela S3 cervix carcinoma cells; averages of 2-8 determinations
In short: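 HeLa S3 cells were exposed to phosphorothioate antisense oligonucleotide (0.2 μM unless stated) with lipofectin for 4 h, then grown 7–10 days in 10% FBS medium. Methylene blue-stained colonies were counted and expressed as percent survival relative to lipofectin-only controls.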

[7] = system: MDA-MB-231 breast cell adenocarcinoma; assay: Relative colony forming efficiency (Example 17, Table 13); conditions: averages of 2-8 determinations
In short: as §1

[8] = system: MDA PaCa-2 pancreatic cell carcinoma; assay: as above; conditions: MIA PaCa-2 pancreatic cell carcinoma, averages of 2-8 determinations
In short: as §1

## CCCCTTCAGCGGCG (antisense dC*dC*dC*dC*dT*dT*dC*dA*dG*dC*dG*dG*dC*dG) [AS-II-253-14]
[1]
  Reduced relative colony forming efficiency, HepG2 (% inhibition of colony forming ability): 42%
[2]
  Reduced relative colony forming efficiency, T24 (% inhibition of colony forming ability): 19.41%
[3]
  Reduced relative colony forming efficiency, PC-3 (% inhibition of colony forming ability): 67.26%
A549 lung cell carcinoma
  Reduced relative colony forming efficiency, A549 (% inhibition of colony forming ability): 61.62%
[4]
  Reduced relative colony forming efficiency, T-47D (% inhibition of colony forming ability): 27.09%
[5]
  Reduced relative colony forming efficiency, HCT116 (% inhibition of colony forming ability): 53.28%
[6]
  Reduced relative colony forming efficiency, 11596 (% inhibition of colony forming ability): 0.81%
Hela S3 cells
  Reduced relative colony forming efficiency, Hela S3 (% inhibition of colony forming ability): 65.18%

## TGCCTCCGACCCTTCCCA (antisense dT*dG*dC*dC*dT*dC*dC*dG*dA*dC*dC*dC*dT*dT*dC*dC*dC*dA) [AS-II-16-18]
[1]
  Reduced relative colony forming efficiency, HepG2 (% inhibition of colony forming ability): 75.89%
[2]
  Reduced relative colony forming efficiency, T24 (% inhibition of colony forming ability): 25.74%
[3]
  Reduced relative colony forming efficiency, PC-3 (% inhibition of colony forming ability): 89.48%
A549 lung cell carcinoma
  Reduced relative colony forming efficiency, A549 (% inhibition of colony forming ability): 81.1%
[7]
  Reduced relative colony forming efficiency, MDA-MB-231 (% inhibition of colony forming ability): 62.59%
[4]
  Reduced relative colony forming efficiency, T-47D (% inhibition of colony forming ability): 7.13%
[5]
  Reduced relative colony forming efficiency, HCT116 (% inhibition of colony forming ability): 78.57%
[6]
  Reduced relative colony forming efficiency, 11596 (% inhibition of colony forming ability): 34.5%
Hela S3 cells
  Reduced relative colony forming efficiency, Hela S3 (% inhibition of colony forming ability): 68.7%

## CGGCGGCGTGTT (antisense dC*dG*dG*dC*dG*dG*dC*dG*dT*dG*dT*dT) [AS-II-288-12]
[8]
  Reduced relative colony forming efficiency, MIA PaCa-2 (% inhibition of colony forming ability): 30.09%
[1]
  Reduced relative colony forming efficiency, HepG2 (% inhibition of colony forming ability): 65.89%
[2]
  Reduced relative colony forming efficiency, T24 (% inhibition of colony forming ability): 30.38%
[3]
  Reduced relative colony forming efficiency, PC-3 (% inhibition of colony forming ability): 74.01%
A549 lung cell carcinoma
  Reduced relative colony forming efficiency, A549 (% inhibition of colony forming ability): 70.49%
[7]
  Reduced relative colony forming efficiency, MDA-MB-231 (% inhibition of colony forming ability): 52.1%
[5]
  Reduced relative colony forming efficiency, HCT116 (% inhibition of colony forming ability): 67.57%
[6]
  Reduced relative colony forming efficiency, 11596 (% inhibition of colony forming ability): 12.67%
Hela S3 cells
  Reduced relative colony forming efficiency, Hela S3 (% inhibition of colony forming ability): 57.63%

## CGCGCGCTCCCGGCCCTTCC (listed as DNA, chemistry not fully specified) [AS-II-75-20]
[8]
  Reduced relative colony forming efficiency, MIA PaCa-2 (% inhibition of colony forming ability): 52.07%
[8]; listed as AS-II-75-20 *
  Reduced relative colony forming efficiency, MIA PaCa-2 (% inhibition of colony forming ability): 97.38%
[1]
  Reduced relative colony forming efficiency, HepG2 (% inhibition of colony forming ability): 97.89%
[1]; listed as AS-II-75-20 *
  Reduced relative colony forming efficiency, HepG2 (% inhibition of colony forming ability): 35.4%
[2]
  Reduced relative colony forming efficiency, T24 (% inhibition of colony forming ability): 95.83%
[2]; listed as AS-II-75-20 *
  Reduced relative colony forming efficiency, T24 (% inhibition of colony forming ability): 73.42%
[3]
  Reduced relative colony forming efficiency, PC-3 (% inhibition of colony forming ability): 83.46%
[3]; listed as AS-II-75-20 *
  Reduced relative colony forming efficiency, PC-3 (% inhibition of colony forming ability): 68.25%
A549 lung cell carcinoma
  Reduced relative colony forming efficiency, A549 (% inhibition of colony forming ability): 60.08%
[7]
  Reduced relative colony forming efficiency, MDA-MB-231 (% inhibition of colony forming ability): 95.14%
[7]; listed as AS-II-75-20 *
  Reduced relative colony forming efficiency, MDA-MB-231 (% inhibition of colony forming ability): 49.3%
[4]
  Reduced relative colony forming efficiency, T-47D (% inhibition of colony forming ability): 32.95%
[5]
  Reduced relative colony forming efficiency, HCT116 (% inhibition of colony forming ability): 44.4%
Hela S3 cells
  Reduced relative colony forming efficiency, Hela S3 (% inhibition of colony forming ability): 93.01%

## GACACAAGGCATCGTTTCAA (antisense dG*dA*dC*dA*dC*dA*dA*dG*dG*dC*dA*dT*dC*dG*dT*dT*dT*dC*dA*dA) [AS-II-784-20]
[8]
  Reduced relative colony forming efficiency, MIA PaCa-2 (% inhibition of colony forming ability): 62.04%
[1]
  Reduced relative colony forming efficiency, HepG2 (% inhibition of colony forming ability): 80.89%
[2]
  Reduced relative colony forming efficiency, T24 (% inhibition of colony forming ability): 87.23%
[3]
  Reduced relative colony forming efficiency, PC-3 (% inhibition of colony forming ability): 88.99%
A549 lung cell carcinoma
  Reduced relative colony forming efficiency, A549 (% inhibition of colony forming ability): 83.8%
[7]
  Reduced relative colony forming efficiency, MDA-MB-231 (% inhibition of colony forming ability): 33.92%
[4]
  Reduced relative colony forming efficiency, T-47D (% inhibition of colony forming ability): 85.39%
[5]
  Reduced relative colony forming efficiency, HCT116 (% inhibition of colony forming ability): 78.09%
Hela S3 cells
  Reduced relative colony forming efficiency, Hela S3 (% inhibition of colony forming ability): 81.48%

## GCACGGGCGACC (antisense dG*dC*dA*dC*dG*dG*dG*dC*dG*dA*dC*dC) [AS-II-127-12]
[8]
  Reduced relative colony forming efficiency, MIA PaCa-2 (% inhibition of colony forming ability): 53.34%
[1]
  Reduced relative colony forming efficiency, HepG2 (% inhibition of colony forming ability): 71.75%
[2]
  Reduced relative colony forming efficiency, T24 (% inhibition of colony forming ability): 50.63%
[3]
  Reduced relative colony forming efficiency, PC-3 (% inhibition of colony forming ability): 79.56%
A549 lung cell carcinoma
  Reduced relative colony forming efficiency, A549 (% inhibition of colony forming ability): 69.33%
[7]
  Reduced relative colony forming efficiency, MDA-MB-231 (% inhibition of colony forming ability): 38.46%
[4]
  Reduced relative colony forming efficiency, T-47D (% inhibition of colony forming ability): 37.54%
[5]
  Reduced relative colony forming efficiency, HCT116 (% inhibition of colony forming ability): 54.34%
Hela S3 cells
  Reduced relative colony forming efficiency, Hela S3 (% inhibition of colony forming ability): 86.45%

## AAAAATCAGCCAAGTAAGGG (antisense dA*dA*dA*dA*dA*dT*dC*dA*dG*dC*dC*dA*dA*dG*dT*dA*dA*dG*dG*dG) [AS-II-1381-20]
[8]
  Reduced relative colony forming efficiency, MIA PaCa-2 (% inhibition of colony forming ability): 73.77%
[1]
  Reduced relative colony forming efficiency, HepG2 (% inhibition of colony forming ability): 62.34%
[2]
  Reduced relative colony forming efficiency, T24 (% inhibition of colony forming ability): 71.37%
[3]
  Reduced relative colony forming efficiency, PC-3 (% inhibition of colony forming ability): 75%
A549 lung cell carcinoma
  Reduced relative colony forming efficiency, A549 (% inhibition of colony forming ability): 86.02%
[7]
  Reduced relative colony forming efficiency, MDA-MB-231 (% inhibition of colony forming ability): 44.41%
[4]
  Reduced relative colony forming efficiency, T-47D (% inhibition of colony forming ability): 93.62%
[5]
  Reduced relative colony forming efficiency, HCT116 (% inhibition of colony forming ability): 89.48%
Hela S3 cells
  Reduced relative colony forming efficiency, Hela S3 (% inhibition of colony forming ability): 80.53%

## GGGAGAGCATAGTGGAGGCG (antisense dG*dG*dG*dA*dG*dA*dG*dC*dA*dT*dA*dG*dT*dG*dG*dA*dG*dG*dC*dG) [AS-II-185-20]
[8]
  Reduced relative colony forming efficiency, MIA PaCa-2 (% inhibition of colony forming ability): 29.32%
[1]
  Reduced relative colony forming efficiency, HepG2 (% inhibition of colony forming ability): 53.44%
[2]
  Reduced relative colony forming efficiency, T24 (% inhibition of colony forming ability): 21.94%
[3]
  Reduced relative colony forming efficiency, PC-3 (% inhibition of colony forming ability): 4.37%
A549 lung cell carcinoma
  Reduced relative colony forming efficiency, A549 (% inhibition of colony forming ability): 71.51%
[7]
  Reduced relative colony forming efficiency, MDA-MB-231 (% inhibition of colony forming ability): 17.4%
[4]
  Reduced relative colony forming efficiency, T-47D (% inhibition of colony forming ability): 94.52%
[6]
  Reduced relative colony forming efficiency, 11596 (% inhibition of colony forming ability): 24.53%
Hela S3 cells
  Reduced relative colony forming efficiency, Hela S3 (% inhibition of colony forming ability): 19.38%

## AAAACCTTGCTAAAACCCAG (antisense dA*dA*dA*dA*dC*dC*dT*dT*dG*dC*dT*dA*dA*dA*dA*dC*dC*dC*dA*dG) [AS-II-1197-20]
[8]
  Reduced relative colony forming efficiency, MIA PaCa-2 (% inhibition of colony forming ability): 70.68%
[1]
  Reduced relative colony forming efficiency, HepG2 (% inhibition of colony forming ability): 76.32%
[2]
  Reduced relative colony forming efficiency, T24 (% inhibition of colony forming ability): 90.3%
[3]
  Reduced relative colony forming efficiency, PC-3 (% inhibition of colony forming ability): 74.4%
A549 lung cell carcinoma
  Reduced relative colony forming efficiency, A549 (% inhibition of colony forming ability): 89.15%
[7]
  Reduced relative colony forming efficiency, MDA-MB-231 (% inhibition of colony forming ability): 50.35%
[4]
  Reduced relative colony forming efficiency, T-47D (% inhibition of colony forming ability): 81.95%
[5]
  Reduced relative colony forming efficiency, HCT116 (% inhibition of colony forming ability): 84.85%
Hela S3 cells
  Reduced relative colony forming efficiency, Hela S3 (% inhibition of colony forming ability): 82.68%

## ATCGCCGCCGTG (antisense dA*dT*dC*dG*dC*dC*dG*dC*dC*dG*dT*dG) [AS-II-1775-12]
[8]
  Reduced relative colony forming efficiency, MIA PaCa-2 (% inhibition of colony forming ability): 27.78%
[1]
  Reduced relative colony forming efficiency, HepG2 (% inhibition of colony forming ability): 43.97%
[2]
  Reduced relative colony forming efficiency, T24 (% inhibition of colony forming ability): 85.54%
[3]
  Reduced relative colony forming efficiency, PC-3 (% inhibition of colony forming ability): 78.17%
A549 lung cell carcinoma
  Reduced relative colony forming efficiency, A549 (% inhibition of colony forming ability): 63.55%
[7]
  Reduced relative colony forming efficiency, MDA-MB-231 (% inhibition of colony forming ability): 48.6%
[6]
  Reduced relative colony forming efficiency, 11596 (% inhibition of colony forming ability): 18.6%
Hela S3 cells
  Reduced relative colony forming efficiency, Hela S3 (% inhibition of colony forming ability): 68.61%
